Results reported in patent publication US20230381312A1, “REDIRECTING GLUCOSE METABOLISM TO LIMIT STRESS AND IMPROVE ADOPTIVE CELL THERAPY” (University of Pittsburgh - Of the Commonwealth System of …, priority 2020, published 2023).

Experiments:
T cells [1] = experiment: Metabolic flux rate experiments (OCR, ECAR) in T cells expanded in DCA; assay type: cell-based, mouse
From the text: The methods provided herein can include measurement of plural extracellular solutes and adjacent living cells disposed, for example, in a well of a multiwell microplate.
This apparatus can include an array of submersible sensors that enable rapid coordinated sensor stabilization within multiple cell-containing wells. It also includes compound storage and delivery apparatus, a pneumatic multiplexer, a structure for adding fluids to subsets or all of the multiple wells simultaneously, and a sensor structure permitting non-destructive measurement of the effect of addition of exogenous fluid to the respective wells, in combination with the ability to make and repeat measurements rapidly. Furthermore, the apparatus is designed to exploit a cartridge structure which permits repeated use of the apparatus for disparate cellular assays without requiring intermediate cleaning, and while eliminating the possibility of cross contamination between tests.
In use, the first step in a measurement sequence with the Seahorse XF instrument is the exchange of cell media to a type containing nearly no bicarbonate or other pH buffer in order to maximize the pH change caused by cellular proton flux.
Next, measurement probes fitted with an optical oxygen and pH sensor were placed in each well, and were raised and lowered to mix the cell media for approximately five minutes. Third, each probe was lowered into the cell media to stop at a precise point above the cells such that approximately 25 μL of media was sequestered in a way that impeded the diffusion of oxygen molecules and protons to the larger volume of media in the well. Fourth, a series of optical measurements of the two sensors on the probe bottom (in contact with the small volume of media above the cells) were made at intervals of 8 seconds and for a period of five minutes. Typically, the dissolved oxygen level decreased by approximately 10% and the pH decreased by approximately 0.1 units. A simple linear fit to the rate of change of oxygen and pH were used to determine the OCR and ECAR for each well. […]

[2] = test system: tumor-infiltrating T cells; experiment: Signaling analysis of patient tumor-infiltrating T cells expanded with DCA (PD-1, Tim-3, IFN-gamma, TNF-alpha); assay type: cell-based, human; conditions: patient TIL expanded with DCA, FIG. 7C
Procedure: (§1) This method included obtaining a sample of tumor from a patient suffering from metastatic melanoma, making a single cell suspension, and expanding the T cells in a cell culture medium with IL-2 present in a concentration of 6000 IU/mL+/−DCA in addition to anti-CD3/anti-CD28 antibodies for a period of 10 days.
Signaling analysis were performed as described above.

EGFR BBz CAR-T cells = experiment: Metabolic flux rate experiments (OCR, ECAR) in EGFR BBz CAR-T cells expanded with DCA; assay type: cell-based; conditions: for OCR analysis (metabolic phenotype): FIG. 9A; for ECAR analysis (metabolic phenotype): FIG. 9B
Procedure: Immunodeficient mice with a solid tumor (unmodified A549) were treated with adoptively transferred EGFR BBz CAR T cells that were expanded either in the presence or absence of DCA.
FIGS. 9A-9C depict metabolic flux rate experiments and flow cytometry measurements, showing that DCA can metabolically enhance a solid-tumor targeted CAR.
The UTD control was prepared as described above. Metabolic flux rate experiments and T cell preparation were performed as described above.

[3] = test system: human anti-CD19 CAR-T cells; experiment: Metabolic flux rate experiments in human anti-CD19 CAR-T cells generated with DCA; assay type: cell-based; conditions: 5 mM DCA relative to hCD19 CAR, FIG. 8B
Procedure: On the first day (“day 0”), 1) fresh or frozen peripheral blood mononuclear (PBMCs) are seeded at 10×10^6 cells/10 mL in a T25 culture flask in T Cell Growth Media (TCGM), and 2) T cell stimulation cocktail is added to a final concentration of 50 ng/mL anti-CD3, 50 ng/mL anti-CD28, and 250 IU/mL IL-2. […] On day 3, 5) lentiviral supernatant is removed, and 6) cells are fed with new media to a concentration of 3×10^5 cells/mL and 5 mM DCA. On day 4, 7) a transfer of 5×10^6 cells/condition is made to G-Rex® 6 multi-well plates, filling TCGM+5 mM DCA to a volume of 100 mL/well. […] On day 10, 9) cells are frozen down to a concentration of 100×10^6 cells/mL. Standard T Cell Growth Media includes: 930 mL X-VIVO®-15 cell medium, 50 ml Human AB Serum, 10 ml 100× GlutaMAX® supplement, and 10 mL 1M HEPES.
FMC63 (human CD19 targeted CAR) human T cells were generated in the presence or absence of DCA. These cells were used to treat mice bearing A549 lung cancer tumors that were engineered to express hCD19.
Controls were prepared and human anti-CD19 CAR-T cells were cultured as described above. Metabolic flux rate experiments measuring OCR were also performed as described above.

T cells [4] = experiment: Mitochondrial mass by MitoTracker FM in T cells cultured in DCA; assay type: cell-based, mouse; conditions: after culture in 5 mM DCA, FIG. 4E
human T cells = experiment: Metabolic flux rate experiments (OCR, SRC) in human T cells expanded in DCA; assay type: cell-based
Procedure: Metabolic flux rate experiments were performed to determine whether human T cells expanded in DCA show improved mitochondrial respiratory capacity. This example identically replicates the methods described in Example 3, except human T cells were used (derived from human healthy donor blood).
Metabolic flux rate measurements were performed using the CellDoctor™ device and methods described above. The CellDoctor™ device was configured to measure oxygen consumption rate (OCR) and extracellular acidification rate (ECAR), corresponding to proton flux, of cells that are adherent to the bottom of 24 well microplates. As described above, flux rate experiments were performed in a human T cell line expanded in either 5 mM DCA or a control group without DCA. FIG. 6A illustrates the use of an activation step (CD3/CD28) for 48 hours and a culturing step (Ctrl/DCA) for 10 days as described in Example 2.

T cells [5] = experiment: T cell survival and BCL2 expression after 10 days expansion in DCA (CellTrace Violet, flow cytometry); assay type: cell-based
Procedure: The impact of a PDHK1 inhibitor (DCA) on T cell survival was assessed by measuring expression of anti-apoptotic BLC2. […] The T cells were activated and expanded as described in Example 1, except the labeled PBMCs were cultured in media containing IL-2 for 48 hours, and the T cells were cultured in DCA or control conditions for 10 days. Experimental expansion conditions included culturing in 5 mM DCA or 10 mM DCA. Control conditions included 5 mM of glycolysis inhibitor 2-deoxyglucose (2DG), low glucose media, or PBS. The impact of DCA on T cell survival was assayed by evaluating CellTrace® Violet dilution with flow cytometry. Fresh X-VIVO®-15-based culture medium containing IL-2 and DCA or 2DG was added to the T cell cultures every two to three days for a total of ten days to permit outgrowth and expansion of the T cells.
A pairwise T test was performed on all day ten cultures (each concentration of DCA was compared to 0 mM DCA: *p<0.05, **p<0.01).

[6] = test system: tumor-infiltrating T cells; experiment: Metabolic flux rate experiment (OCR) in tumor-infiltrating T cells of melanoma patients expanded in vitro with DCA; assay type: cell-based, human; conditions: patient TIL expanded 10 days, FIG. 7B
From the text: Patient samples and PBMC samples were obtained from melanoma patients who were enrolled on institutional review board approved protocols. Cells from 5 different patients were used. PBMC were cryopreserved in 90% FBS plus 10% DMSO (Sigma, St. Louis. MO).
as §1
Metabolic flux rate experiments measuring OCR were also performed as described above.

T cells [7] = experiment: Cytokine synthesis on restimulation after switch to low or high nutrient conditions; assay type: cell-based
From the text: FIG. 15A is a schematic of the experimental protocol for FIGS. 15B and 15C.

[8] = 5 mM DCA relative to UTD control
[9] = 10 mM DCA relative to UTD control

O=C(O)C(Cl)Cl [DCA, dichloroacetic acid]
OCR after sequential injection of FCCP and 2DG (T cells [1]; T cells expanded in 5 mM DCA vs control cells, FIG. 4A): OCR increased
increase in OCR over baseline (T cells [1]; T cells expanded in 5 mM DCA, FIG. 4B): at least 30%
increase in ECAR over baseline (T cells [1]; T cells expanded in 5 mM DCA, FIG. 4C): at least 10 mpH/min
cytokine production (IFN-gamma and TNF-alpha) [2]: increase in cytokine production
ratio of PD-1 negative T cells to PD-1 positive T cells [2]: increasing ratio
ratio of Tim-3 negative T cells to Tim-3 positive T cells [2]: increasing ratio
OCR analysis (metabolic phenotype) (EGFR BBz CAR-T cells; [8]): superior metabolic phenotype
ECAR analysis (metabolic phenotype) (EGFR BBz CAR-T cells; [8]): superior metabolic phenotype
OCR analysis (metabolic phenotype) (EGFR BBz CAR-T cells; [9]): superior metabolic phenotype
ECAR analysis (metabolic phenotype) (EGFR BBz CAR-T cells; [9]): superior metabolic phenotype
OCR at serial time points (metabolic phenotype) [3]: superior metabolic and therapeutic phenotype
mitochondrial mass (MitoTracker FM) (T cells [4]): increased
Spare Respiratory Capacity (SRC, OCRmax-OCRbasal) (human T cells; human T cells expanded in 5 mM DCA versus control, FIG. 6D): at least 60
increase in OCR over baseline (human T cells; human T cells expanded in 5 mM DCA, FIG. 6C): at least 20 pmol/min
OCR over time (human T cells; human T cells, CD3/CD28 48 hours then 5 mM DCA 10 days vs control, FIG. 6B): dramatic increase
T cell survival (T cells [5]; T cells cultured in 5 mM or 10 mM DCA for 10 days vs 0 mM DCA): significantly increased
expression of the anti-apoptotic factor BCL2 (T cells [5]; T cells cultured in DCA for 10 days, FIG. 3): enhanced expression
OCR at serial time points (metabolic phenotype) ([6]; 5 mM DCA relative to TIL control): superior metabolic phenotype
OCR at serial time points (metabolic phenotype) ([6]; 10 mM DCA relative to TIL control): superior metabolic phenotype
cytokine synthesis when restimulated after expansion (T cells [7]; cells cultured with DCA for 7 days, then low or high nutrient conditions for 14 hours, FIG. 15B-15C): more proficient at synthesizing cytokines
resistance to stress in low nutrient conditions (T cells [7]; low nutrient: 1 mM glucose+0 mM pyruvate, 14 hours): more resistant to stress
